The source of these data is US20060111447A1, “Inhibiting progressive cognitive impairment” (priority 2002, published 2006).

Where two headings read alike, the source gives them in different places.

The test system of one data set is sAPPα. The experiment in a line: sAPPα levels in SY5Y neuroblastoma cells (6E10 immunoreactivity, Western blot). In kind it is cell-based. The note with it: 1 μM and 5 μM. In general terms: In western blotting, separated proteins are transferred to a membrane and probed.
In data set [1] the test system is Aβ42. As to conditions: CHO-APPswe cells, 0.1 micromolar, 24 hours. Here is the method: (§1) The amount of amyloid β peptides produced was measured by an ELISA assay from BioSource (Camarillo, Calif.). Samples were diluted 1:10 in buffer (0.05% (v/v) Tween-20, 1 mM Pefabloc protease inhibitors) followed by centrifugation for 20 minutes at 4° C. Total Aβ40 or Aβ42 were measured by sandwich ELISA following the manufacturer's instructions.

Data set [2] concerns Aβ40. As to conditions: CHO-APPswe cells, 0.1 micromolar, 24 hours. Here is the method:
as §1

The next data set can be described thus: clinical. The note with it: human, po, 100 mg twice daily. The protocol:
A tolerability study was performed in elderly human subjects (Aisen et al., 2002, Neurology 58(7):1050-1054).

Another data set relates to PGE2. As to conditions: mice, same brain, nimesulide 1500 mg/kg of diet for three months.
For data set [3] the following is noted: mice.
The subject of data set [4] is γ-secretase. As to conditions: CHO-APPswe cells, 0.1 micromolar, 24 hours.
The next data set can be described thus: in vivo. The note with it: B6SJ1, mouse, brain relative to serum, oral, 1500 mg/kg of diet, level of nimesulide in the brain relative to serum levels, mice, nimesulide 1500 mg/kg of diet for three months, brain parenchyma.
Data set [5] has as its system γ-secretase. Here is the method: (§2) FIG. 11A-B. CHO cells were transfected with APPswe and LacZ (open bars) or with APPswe and hCOX-2(filled bars), as in FIG. 10A-C.
CHO cells were transfected with APPswe and LacZ (open bars) or with APPswe and hCOX-2 (filled bars), as in the preceding Section 11, and γ-secretase and Aβ42 levels were measured.

For data set [6], the system named is Aβ42.
Text: as §2

For data set [7], the system named is Aβ40. As to conditions: CHO cells with APPswe and hCOX-2, nimesulide concentrations down to 10^−12 M. An excerpt:
FIG. 10A-C. […] (C) Aβ42 levels in CHO cells transfected with APPswe and LacZ (open bars) or with APPswe and hCOX-2 (filled bars). Data are expressed as means±S.E.M. (percent of control LacZ transfection from three independent studies).
Using an adenovirus vector, hCOX-2 was transfected and expressed in CHO cells which had been stably transfected with APPswe (see above).

The conditions of data set [8]: cited from earlier work.
For another data set, the system named is complement ClqB. As to conditions: in vivo; cited from earlier work.
The mark [9] stands for this setting: CHO-APPswe cells transfected with hCOX-2, 10^−9 molar.

Turning to `CS(=O)(=O)c1ccc(C2=C(c3ccccc3)C(=O)OC2)cc1` [Rofecoxib], the “levels of sAPPα relative to controls (6E10 immunoreactivity)” value with sAPPα is “decreased”.

Turning to `CS(=O)(=O)Nc1ccc([N+](=O)[O-])cc1Oc1ccccc1` [nimesulide, 4-nitro-2-phenoxymethanesulfonanilide], in the data set with Aβ42 [1], the “decrease of the amount of Aβ42” value is given as 20-25%. For the same molecule, the “decrease of the amount of Aβ40” value with Aβ40 [2] is listed as 20-25%. The concentration at 24 weeks was around 1 µM in “clinical” (brain) and around 10 µM in “clinical” (serum). The “decrease of PGE2 content” value in the data set on PGE2 is listed as “approximately 50%”. Besides, in [3] (nimesulide 1500 mg/kg of diet (50 mg/kg per day) for 3 months), the necropsy findings result was “did not demonstrate any gross alterations or renal or intestinal abnormalities”. Besides, the tolerability entry in data set [3] (nimesulide 1500 mg/kg of diet for 3 months) is given as “well tolerated”. In addition, in the data set on γ-secretase [4], the “inhibition of γ-secretase activity” value was “approximately 40%”. In “in vivo”, this molecule had a Kp at 3 months of around 0.1. Also, the “effect on hCOX-2 mediated increase of γ-secretase activity” value in the data set on γ-secretase [5] (setting [9]) is reported as “decreased to control levels”. For the same molecule, the “additional decrease of γ-secretase levels” value with γ-secretase [5] (both hCOX-2 and LacZ-transfected CHO-APPswe cells, 10^−6 molar) was 10-15%. Moreover, the “effect on hCOX-2 increased Aβ42 concentration” value is given as “decreased to essentially control levels” in the data set on Aβ42 [6] (CHO-APPswe cells transfected with hCOX-2, 10^−6 molar) and “slightly decreased” in the data set on Aβ42 [6] (setting [9]). For the same molecule, the “effect on hCOX-2 mediated increase in Aβ40 levels” value in the data set on Aβ40 [7] is recorded as “virtually nullified”. The “tolerability, long term treatment” value in data set [8] (clinical study, up to 104 weeks) was “well tolerated”. Further, the “cognitive benefit in AD patients” value in [8] (twelve-week clinical trial) was “no cognitive benefit was observed”. In data set [8] (twelve-week clinical trial), the “tolerability in AD patients” value is reported as “well tolerated”. The “effect on hCOX-2 induced increase of ClqB levels in the brain” value in the data set on complement ClqB was “able to block that increase”.

One may read the Kp as tissue or fluid exposure divided by exposure in the circulation.
